Assays:
[1] = system: PsA biofilms and planktonic cells; details: cited from earlier work
pqsA mutant biofilms = details: mutant with little to no eDNA; cited from earlier work
PsA = experiment: Activity of extant antibiotics together with ZnPor (II); details: pre-treated by ZnPor (II)

| SMILES | toxicity to bacterial cells ([1]; absence of photoactivation) | effect on antibiotic sensitivity of biofilm-associated cells ([1]; light activation not required) | efficacy against PsA biofilms and planktonic cells ([1]; when photoactivated) | effect on PsA biofilms ([1]; without light activation) | effect on pqsA mutant biofilms (pqsA mutant biofilms) | killing of PsA (PsA) |
| --- | --- | --- | --- | --- | --- | --- |
| C[n+]1ccc(-c2c3nc(c(-c4cc[n+](C)cc4)c4ccc([nH]4)c(-c4cc[n+](C)cc4)c4nc(c(-c5cc[n+](C)cc5)c5ccc2[nH]5)C=C4)C=C3)cc1.Cc1ccc(S(=O)(=O)[O-])cc1.Cc1ccc(S(=O)(=O)[O-])cc1.Cc1ccc(S(=O)(=O)[O-])cc1.Cc1ccc(S(=O)(=O)[O-])cc1 [TMP, 5,10,15,20-tetrakis(1-methylpyridino)-21H,23H-porphine, tetra-p-tosylate salt] | little to no toxicity | sensitive to tobramycin, gentamycin, and vancomycin | highly effective | disruption and detachment from the substrata | no effect |  |
| CN[C@H](CC(C)C)C(=O)N[C@H]1C(=O)N[C@@H](CC(N)=O)C(=O)N[C@H]2C(=O)N[C@H]3C(=O)N[C@H](C(=O)N[C@H](C(=O)O)c4cc(O)cc(O)c4-c4cc3ccc4O)[C@H](O)c3ccc(c(Cl)c3)Oc3cc2cc(c3O[C@@H]2O[C@H](CO)[C@@H](O)[C@H](O)[C@H]2O[C@H]2C[C@](C)(N)[C@H](O)[C@H](C)O2)Oc2ccc(cc2Cl)[C@H]1O [Vancomycin, reference compound] |  |  |  |  |  | kills |
